Laboratory results: publication PMC3548404 (Nature, 2010)

Columns and labels:
AtSLAC1 [1] = molecular target: T1, AtSLAC1 (Arabidopsis thaliana, UniProt Q9LD83); details: 30 mM CsCl bath, pH 5.6; permeant anion; no AtOST1
T1 sequence (Q9LD83 1-556): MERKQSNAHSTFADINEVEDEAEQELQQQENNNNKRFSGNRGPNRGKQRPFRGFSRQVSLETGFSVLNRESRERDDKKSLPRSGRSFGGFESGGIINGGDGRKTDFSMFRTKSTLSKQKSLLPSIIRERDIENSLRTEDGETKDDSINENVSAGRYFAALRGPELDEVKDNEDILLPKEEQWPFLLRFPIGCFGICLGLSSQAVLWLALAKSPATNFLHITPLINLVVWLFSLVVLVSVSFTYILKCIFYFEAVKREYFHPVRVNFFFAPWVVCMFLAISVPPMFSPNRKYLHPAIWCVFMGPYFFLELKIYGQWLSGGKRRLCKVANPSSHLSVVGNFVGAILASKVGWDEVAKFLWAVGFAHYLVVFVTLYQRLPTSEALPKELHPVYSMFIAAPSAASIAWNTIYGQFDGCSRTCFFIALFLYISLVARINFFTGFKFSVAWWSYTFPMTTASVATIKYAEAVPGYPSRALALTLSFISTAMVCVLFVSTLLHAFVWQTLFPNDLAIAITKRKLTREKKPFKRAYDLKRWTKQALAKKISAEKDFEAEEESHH

AtSLAC1 [2] = molecular target: T1, AtSLAC1; assay: two-electrode voltage clamp, Xenopus oocytes; assay type: cell-based; details: 50 mM sodium salt in bath, pH 5.6; permeant anion

SMILES | chloride current at -90 mV (AtSLAC1 [1]) | P[X]/P[Cl] (AtSLAC1 [2])
Cl [chloride] | We observed modest-sized chloride currents with wild-type AtSLAC1 cRNA | 
O=[N+]([O-])O [nitrate] |  | selective among anions, with greater permeability for nitrate than for chloride
